According to ChEMBL document CHEMBL5034018, “LXR-Mediated Regulation of Marine-Derived Piericidins Aggravates High-Cholesterol Diet-Induced Cholesterol Metabolism Disorder in Mice” (J Med Chem, 2021):
The source made the active and inactive calls. The calls are words filed in the database; no cut-off is given here.

Tests used:
[1] = Induction of FXR mRNA level in human HepG2 cells assessed as fold increase in FXR expression at 1 uM by RT-qPCR analysis; format: functional
[2] = Toxicity in HCD-fed C57BL/6 mouse assessed as fold increase in ALT level at 0.8 mg/kg, ip; format: organism-based; settings: in vivo
[3] = test system: Mus musculus; experiment: Induction of HCD-induced cholestasis in C57BL/6 mouse assessed as lipid accumulation in liver at 0.8 mg/kg, ip; format: functional, organism-based
[4] = Toxicity in renal carcinoma xenografted C57BL/6 mouse assessed as effect on visceral coefficient of lung at 0.8 mg/kg, ip; format: organism-based; settings: in vivo
[5] = Effect on bile acid homeostasis in HCD-fed C57BL/6 mouse assessed as decrease in Car mRNA expression by RT-qPCR analysis; format: functional; design: scale not given: the % may be the effect or the level left
[6] = test system: HepG2; experiment: Down regulation of ABCB1 protein level in human HepG2 cells at 1 to 5 uM by Western blot analysis; format: functional, cell-based; settings: dose 1-5 µM
[7] = Effect on bile acid homeostasis in HCD-fed C57BL/6 mouse assessed as reversal of LXRbeta mRNA upregulation by RT-qPCR analysis; format: functional
[8] = Hepatotoxicity in renal carcinoma xenografted C57BL/6 mouse assessed as effect on body weight at 0.8 mg/kg, ip; format: toxicity, organism-based; settings: in vivo
[9] = Toxicity in renal carcinoma xenografted C57BL/6 mouse assessed as effect on visceral coefficient of kidney at 0.8 mg/kg, ip; format: organism-based; settings: in vivo
[10] = Drug metabolism in mouse liver assessed as PA formation at 10 mg/kg, po after 30 mins by LC-MS/MS analysis; format: ADME, organism-based; settings: in vivo, 0.5 h
[11] = test system: Mus musculus; experiment: Reversal of HCD-induced LXRalpha activation in C57BL/6 mouse assessed as decrease in LXRalpha protein level at 0.8 mg/kg, ip; format: functional; design: scale not given: the % may be the effect or the level left
[12] = test system: HepG2; experiment: Down regulation of LXRalpha protein level in human HepG2 cells at 1 to 5 uM by Western blot analysis; format: functional, cell-based; settings: dose 1-5 µM
[13] = Effect on bile acid homeostasis in HCD-fed C57BL/6 mouse assessed as inhibition of Cyp8b1 mRNA expression by RT-qPCR analysis; format: functional; design: scale not given: the % may be the effect or the level left
[14] = Induction of SHP mRNA level in human HepG2 cells assessed as fold increase in SHP expression at 1 uM by RT-qPCR analysis; format: functional
[15] = test system: HepG2; experiment: Induction of mitochondrial dysfunction in human HepG2 cells assessed as decrease in ILbeta level at 5 to 10 uM after 48 hrs; format: cell-based; design: scale not given: the % may be the effect or the level left; settings: hepg2, 48 h, dose 5-10 µM
[16] = Hepatotoxicity in renal carcinoma xenografted C57BL/6 mouse assessed as fold increase in plasma ALT at 0.8 mg/kg, ip; format: toxicity, organism-based; settings: in vivo
[17] = Hepatotoxicity in renal carcinoma xenografted C57BL/6 mouse assessed as liver swelling at 0.8 mg/kg, ip; format: toxicity, organism-based; settings: in vivo
[18] = Toxicity in HCD-fed C57BL/6 mouse assessed as fold increase in AST level at 0.8 mg/kg, ip; format: organism-based; settings: in vivo
[19] = test system: HepG2; experiment: Induction of mitochondrial dysfunction in human HepG2 cells assessed as increase in ROS production at 0.1 to 5 uM after 48 hrs by flow cytometric analysis; format: cell-based; settings: hepg2, 48 h, dose 0.1-5 µM
[20] = Drug metabolism in mouse liver assessed as PA formation at 10 mg/kg, po after 180 mins by LC-MS/MS analysis; format: ADME, organism-based; settings: in vivo, 3 h
[21] = test system: HepG2; experiment: Induction of apoptosis in human HepG2 cells assessed as late apoptotic cells at 5 uM measured after 48 hrs by Annexin-V-FITC/propidium iodide staining based flow cytometry (reference value: 0 %); format: functional
[22] = Induction of LDLR protein expression level in HCD-fed C57BL/6 mouse at 0.8 mg/kg, ip; format: functional
[23] = test system: HepG2; experiment: Effect on LXRalpha mRNA level in human HepG2 cells at 1 to 5 uM by RT-qPCR analysis; format: functional, cell-based; settings: dose 1-5 µM
[24] = Effect on bile acid homeostasis in HCD-fed C57BL/6 mouse assessed as fold increase in Mrp3 mRNA expression by RT-qPCR analysis; format: functional
[25] = Effect on bile acid homeostasis in HCD-fed C57BL/6 mouse assessed as down regulation of Ost-alpha mRNA expression by RT-qPCR analysis; format: functional
[26] = test system: Mus musculus; experiment: Induction of HCD-induced cholestasis in C57BL/6 mouse assessed as fold increase in liver total cholesterol level at 0.8 mg/kg, ip; format: organism-based; settings: in vivo
[27] = Hepatotoxicity in renal carcinoma xenografted C57BL/6 mouse assessed as inflammatory infiltration at 0.8 mg/kg, ip by histological analysis; format: toxicity, organism-based; settings: in vivo
[28] = test system: Mus musculus; experiment: Induction of HCD-induced cholestasis in C57BL/6 mouse assessed as large scale necrotic foci at 0.8 mg/kg, ip; format: functional, organism-based
[29] = test system: Mus musculus; experiment: Induction of HCD-induced cholestasis in C57BL/6 mouse assessed as fold increase in liver LDL-cholesterol level at 0.8 mg/kg, ip; format: organism-based; settings: in vivo
[30] = Effect on bile acid homeostasis in HCD-fed C57BL/6 mouse assessed as decrease in FXR mRNA expression by RT-qPCR analysis; format: functional; design: scale not given: the % may be the effect or the level left
[31] = Induction of LDLR protein expression level in chow diet fed C57BL/6 mouse at 0.8 mg/kg, ip; format: functional
[32] = Toxicity in renal carcinoma xenografted C57BL/6 mouse kidney assessed as change in CRE level at 0.8 mg/kg, ip; format: organism-based; settings: in vivo
[33] = Down regulation of FXR mRNA level in human HepG2 cells at 5 uM by RT-qPCR analysis; format: functional
[34] = Down regulation of FXR mRNA level in human HepG2 cells at 1 uM by RT-qPCR analysis; format: functional
[35] = Down regulation of SHP mRNA level in human HepG2 cells at 1 uM by RT-qPCR analysis; format: functional
[36] = biological target: T1, Oxysterols receptor LXR-alpha (Homo sapiens, UniProt Q13133); experiment: Binding affinity to full-length human LXRalpha by surface plasmon resonance assay
T1 sequence (Q13133 whole entry): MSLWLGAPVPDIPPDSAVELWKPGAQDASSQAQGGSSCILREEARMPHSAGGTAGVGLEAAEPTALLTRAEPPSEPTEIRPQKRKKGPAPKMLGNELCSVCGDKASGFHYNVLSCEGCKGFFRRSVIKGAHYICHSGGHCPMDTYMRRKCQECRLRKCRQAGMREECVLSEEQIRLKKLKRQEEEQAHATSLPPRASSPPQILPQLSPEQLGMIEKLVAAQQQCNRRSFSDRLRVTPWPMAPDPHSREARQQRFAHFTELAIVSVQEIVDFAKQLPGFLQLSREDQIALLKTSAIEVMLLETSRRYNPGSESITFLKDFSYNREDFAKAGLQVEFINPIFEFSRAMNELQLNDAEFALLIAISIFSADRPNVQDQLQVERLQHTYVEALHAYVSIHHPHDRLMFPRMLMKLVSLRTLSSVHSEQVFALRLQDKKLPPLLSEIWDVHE

[37] = test system: HepG2; experiment: Induction of mitochondrial dysfunction in human HepG2 cells assessed as decrease in TNFalpha level at 1 uM after 48 hrs; format: cell-based; design: scale not given: the % may be the effect or the level left; settings: hepg2, 48 h

C/C=C(\C)[C@H](O[C@@H]1O[C@H](CO)[C@@H](O)[C@H](O)[C@H]1O)[C@H](C)/C=C(C)/C=C/C/C(C)=C/Cc1nc(OC)c(OC)c(O)c1C
fold change (FC) [1]: 3.6 | fold change (FC) [2]: 3.8 | Activity [3]: Active | Activity [4]: Non-Toxic | Activity [5]: 86% | Activity [6]: Active | Activity [7]: 72% | Activity [8]: Non-Toxic | Activity [9]: Non-Toxic | Drug metabolism [10]: 14.87 ng/mL | Activity [11]: 46% | Activity [12]: Active | Activity [13]: 3% | fold change (FC) [14]: 3.6 | Activity [15]: 68% | fold change (FC) [16]: 2.3 | Activity [17]: Non-Toxic | fold change (FC) [18]: 2.3 | Activity [19]: Non-Toxic | Drug metabolism [20]: Metabolite_Detected | Activity [21]: 0% | fold change (FC) [22]: 1.6 | Activity [23]: inactive | fold change (FC) [24]: 1.65 | Activity [25]: 44% | fold change (FC) [26]: 3.8 | Activity [27]: Toxic | Activity [28]: Active | fold change (FC) [29]: 2.9 | Activity [30]: 60% | fold change (FC) [31]: 1.5 | Activity [32]: Non-Toxic

C/C=C(\C)[C@H](O)[C@H](C)/C=C(C)/C=C/C/C(C)=C/Cc1nc(OC)c(OC)c(O)c1C [PIERICIDIN A]
fold change (FC) [2]: 3.7 | Activity [3]: Active | Activity [33]: 34% | Activity [4]: Non-Toxic | Activity [34]: 56% | Activity [5]: 50% | Activity [7]: 72% | Activity [8]: Non-Toxic | Activity [9]: Non-Toxic | Activity [11]: 72% | Activity [35]: 55% | Activity [13]: 2.8% | fold change (FC) [16]: 2.6 | Activity [17]: Non-Toxic | fold change (FC) [18]: 2.3 | Activity [19]: Non-Toxic | Kd [36]: 3.24 µM | Activity [21]: 0% | Activity [25]: 10% | fold change (FC) [26]: 2.7 | Activity [27]: Toxic | Activity [28]: Active | fold change (FC) [29]: 2.2 | Activity [37]: 54% | Activity [30]: 58% | Activity [32]: Non-Toxic
